# Results as given in patent publication US20160310454A1, “LIVER X RECEPTOR AGONISTS IN THE TREATMENT OF EMPHYSEMA” (priority 2013, published 2016).
# Entries after “also recorded” stand apart in the source; their conditions may differ.
# Test system: AKR/J mice exposed to cigarette smoke for 5 months
# Test: Chronic 5 months cigarette smoke exposure model, LXR agonist in diet
# Format: in vivo, mouse
# Conditions: for cigarette smoke induced protein levels of TNFα in the BAL / level of ABCA1 in BAL and lung tissue / total inflammatory cell counts in BAL: diet 0.015% w/w (30 mg/kg)
# Protocol: Mice were chronically exposed to smoke in a specially designed chamber (Teague Enterprise, CA). 8 weeks old mice were smoke-exposed for 5 hours a day, 5 days a week for 10 days and 5 months. The total particulate matter (TPM) within the smoking chamber was regulated so that the mice receive a TPM of 100 mg/m^3. TPM was determined by a gravimetric analysis of filter samples taken during the exposure period. Mice (C57BL/6, AKR/J strain) were smoke exposed for 10 days and 5 months and compared to room air exposed controls.
# Eight week-old AKR/J mice were utilized in the study and exposed to three different conditions: room air (n=8), cigarette smoke (n=8), cigarette smoke with additional treatment with LXR agonist (n=8). The LXR agonist was delivered in the diet and the concentration calculated based on the average mouse weight (30 g) and food consumption (6 g/day). Experimental food was prepared with a 0.015% LXR agonist (T0901317-Cayman Chemicals) in food (w/w) concentration corresponding to 30 mg/kg body weight. Both the control group and the custom drug diet were prepared by Research diets, Inc., New Brunswick, N.J. (Control diet (C11000)—Purina Rodent Chow 5001, Custom Diet (C13861)—Purina Rodent Chow 5001 with 0.015% LXR agonist (T0901317-Cayman Chemicals).
# To determine the pulmonary compliance of the lung, a closed chest model was utilized (Foronjy et al., 2005). Respiratory mechanics were measured using a flexiVent (SCIREQ) system (Foronjy et al., 2005). Pentobarbital was used for sedation and succinylcholine for paralysis. The mice then underwent neck dissection and tracheostomy followed by a full assessment of pulmonary mechanics in triplicate utilizing the flexiVent system (Foronjy et al., 2005). After the airway measurements were performed the animals were sacrificed by CO2 inhalation and further utilized for tissue, BAL and lung analysis.
# The BAL fluid was collected by perfusing the lungs with 2 ml of phosphate buffered saline (PBS). The samples were then centrifuged to pellet down the cells and re-suspended in 300 μl of PBS. To obtain the total cell count, cells were counted using a hematocytometer for which, 10 μl of the sample was utilized. To obtain the differential cell count, the slides were prepared using a cytopsin. 150 μl of sample was taken to prepare slides. These slides were stained using Hematoxylin and Eosin (H&E) and a number of regular and foamy like macrophages and lymphocytes counted under the microscope. A foamy like phenotype (Hirama et al., 2007) was identified by examining the sequential increase in macrophage size. Lipid staining was not performed.
# Histological evaluation of the inflammation was performed on the left lungs which were fixed using 10% formalin. Fixed tissue was stained with H&E and Trichrome and mean linear intercept (MLI) determined as described previously (Foronjy et al., 2008; Foronjy et al., 2005; Foronjy et al., 2001; Foronjy et al., 2010; Foronjy et al., 2008a; Foronjy et al., 2006; Foronjy et al., 2003; Geraghty et al., 2013).
# Total RNA was extracted from specimens of lung tissue 0.3 cm^3 in size with the use of the RNeasy kit (Qiagen, Germantown, Md.) (Goldklang et al., 2012). The RNA was then further processed to obtain cDNA, which was used for Real Time (RT) PCR analysis. TaqMan gene expression assays (Applied Biosystems, Carlsbad, Calif.) were performed to assess gene-transcript levels with the use of an ABI Prism 7900HT Sequence Detection System (Applera, Foster City, Calif.) (Goldklang et al., 2012). The following primers were used to check the respective gene expression: ABCA1 (Hs01059118_m1), ABCG1 (Hs00245154_m1), MMP-9 (Mm00442991_m1), IL-1β (Mm00434227_g1), TNF-α (Mm00443260_g1) and GAPDH (4352932E) from TaqMan Gene Expression Assays, Applied Biosystems, CA. β-actin was used as a control since it is a housekeeping gene.
# [1] = 5 months smoke, mass spectrometry
# [2] = 5 months smoke, listed as LXR agonist
# [3] = diet 0.015% w/w, 5 months smoke
compound,measurement,setting,value
"O=S(=O)(c1ccccc1)N(CC(F)(F)F)c1ccc(C(O)(C(F)(F)F)C(F)(F)F)cc1 [T0901317, N-(2,2,2-trifluoroethyl)-N-[4-[2,2,2-trifluoro-1-hydroxy-1-(trifluoromethyl)ethyl]phenyl]-benzenesulfonamide]",collagen airway and vessels deposition,"5 months smoke, Masson Trichrome staining",decrease
same,cigarette smoke induced increase in C14 and C16 ceramides in BAL,[1],reduced
same,total level of ceramides in the BAL,[1],reduced
same,smoke induced increase in IFNγ and MCP-1 in the lung,diet 0.015% w/w,inhibited
same,cigarette smoke induced protein levels of TNFα in the BAL,5 months smoke,decreased
same,level of ABCA1 in BAL and lung tissue,5 months smoke,induced
same,total inflammatory cell counts in BAL,5 months smoke,decrease
same,cigarette smoke induced protein levels of TNFα in the BAL,[2],abrogated
same,level of ABCA1 in BAL and lung tissue,[2],successfully increased; also recorded: restored
same,total inflammatory cell counts in BAL,[2],significantly decreased
same,lung structure / emphysema development by mean linear intercept,[3],preserved the lung structure and blocked emphysema development
same,mRNA expression of MMP-9 and TNFα in the lungs,[3],No significant changes
same,mRNA levels of MMP-9 in the BAL cells,[3],not significantly altered
same,alveolar macrophage population exhibiting a foam cell-like phenotype,"diet 0.015% w/w, 5 months smoke, differential BAL cell counts",significantly reduced
same,lung elastance,"diet 0.015% w/w, 5 months smoke, flexiVent",increase
same,lung compliance,"diet 0.015% w/w, 5 months smoke, flexiVent, vs untreated smoke exposed mice",decrease
same,smoke induced MMP-9 activity in the BAL,"diet 0.015% w/w, gelatin zymography",attenuated
